{"source": "paper PMC7960626", "about": "“Phase I study assessing the mass balance, pharmacokinetics, and excretion of [^14C]-pevonedistat, a NEDD8-activating enzyme inhibitor in patients with advanced solid tumors” (Investigational New Drugs, 2020)", "key": {"[1]": {"test": "Whole blood PK and whole blood/plasma partitioning after a single 1-h IV infusion of [^14C]-pevonedistat 25 mg/m^2 (part A)", "format": "in vivo, human", "conditions": "for blood plasma ratio: whole blood and plasma, iv, 25 mg/m^2, single 1-h IV infusion 25 mg/m^2", "description": "This was a two-part (A and B), open-label, multicenter, mass balance, distribution, metabolism, excretion (DME) study in adult patients with advanced solid tumors. […] Patients were required to stay at the part A study site for approximately 8 days or until the discharge criteria were met, with a maximum estimated confinement period of 9–14 days. Upon completion of part A, patients had the option to participate in part B at Medical Center Hungarian Defense Forces, Budapest, Hungary. […] Treatment was administered for 12 cycles or until discontinuation criteria were met.\nComplete urinary and fecal output were collected for analysis of PK (urine) and total radioactivity (urine and feces) throughout the confinement period until discharge criteria were met. Bioanalytical assay methods are shown in the Supplementary Methods. […] In part B, disease assessments were conducted using radiological evaluations (computed tomography [CT] scan or magnetic resonance imaging [MRI], as clinically indicated).\nNon-compartmental analysis using Phoenix™ WinNonlin® version 8.0 (Pharsight Corp., Mountain View, California, USA) was used for estimation of PK parameters for pevonedistat in whole blood, plasma, and urine and for total radioactivity in whole blood, plasma, urine, and feces. The following single-dose PK parameters were derived: maximum plasma concentration (Cmax), area under the concentration–time curve from time 0 to infinity (AUC∞), AUC from time 0 to the last quantifiable concentration (AUC0 − last), terminal disposition phase half-life (t1/2), renal clearance (CLR), clearance (CL), and volume of distribution at steady state (Vss).\nPK data were summarized using descriptive statistics, and the PK and mass balance parameters described in Supplementary Table S1 were calculated by non-compartmental analysis for each individual patient. Safety was assessed in all patients who received at least one dose of pevonedistat, and TEAEs were coded according to the Medical Dictionary for Regulatory Activities (MedDRA), version 20.0. Analysis of efficacy in part B was descriptive; disease response was assessed in all patients who received at least one dose of pevonedistat, had measurable disease (per entry criteria for part B), and had at least one post-baseline disease assessment. Response assessment was done by the investigator using Response Evaluation Criteria in Solid Tumors (RECIST) version 1.1. SAS version 9.4 was used for all statistical analyses. […]\n160 All samples were analyzed applying the methods described below:\nAfter vortex mixing for at least 5 sec, the\n170 Method for whole blood"}, "[2]": {"test": "Safety (TEAEs, NCI CTCAE v4.03) after single dose of [^14C]-pevonedistat (part A)", "format": "in vivo, human", "conditions": "for On-study deaths, patients: part A, N = 8", "protocol": "This was a two-part (A and B), open-label, multicenter, mass balance, distribution, metabolism, excretion (DME) study in adult patients with advanced solid tumors. In part A, patients received a single IV infusion of [^14C]-pevonedistat 25 mg/m^2 (containing approximately 60–85 µCi, or 2.22–3.145 MBq, of total radioactivity) at a single center (Duna Medical Center, Budapest, Hungary). Patients were required to stay at the part A study site for approximately 8 days or until the discharge criteria were met, with a maximum estimated confinement period of 9–14 days. Upon completion of part A, patients had the option to participate in part B at Medical Center Hungarian Defense Forces, Budapest, Hungary. In part B, patients received treatment in 3-week cycles with either: pevonedistat 20 mg/m^2 on days 1, 3, and 5 plus carboplatin AUC5 and paclitaxel 175 mg/m^2 on day 1; or pevonedistat 25 mg/m^2 on days 1, 3, and 5 plus docetaxel 75 mg/m^2 on day 1. Treatment was administered for 12 cycles or until discontinuation criteria were met.\nBlood samples were collected for total radioactivity and PK assessments in whole blood and plasma at prespecified time points (pre dose [within 1 h before the start of the pevonedistat infusion], end of infusion, then 0.5, 1, 2, 3, 4, 8, 12, 24, 48, 72, 96, 120, 144 and 168 hours post dose). Complete urinary and fecal output were collected for analysis of PK (urine) and total radioactivity (urine and feces) throughout the confinement period until discharge criteria were met. Bioanalytical assay methods are shown in the Supplementary Methods. Safety was assessed by incidence and severity of TEAEs, vital signs, physical examinations, electrocardiograms, and clinical laboratory tests, and toxicities were graded according to the National Cancer Institute Common Terminology Criteria for Adverse Events (NCI CTCAE), version 4.03. In part B, disease assessments were conducted using radiological evaluations (computed tomography [CT] scan or magnetic resonance imaging [MRI], as clinically indicated).\nPK data were summarized using descriptive statistics, and the PK and mass balance parameters described in Supplementary Table S1 were calculated by non-compartmental analysis for each individual patient. Safety was assessed in all patients who received at least one dose of pevonedistat, and TEAEs were coded according to the Medical Dictionary for Regulatory Activities (MedDRA), version 20.0. Analysis of efficacy in part B was descriptive; disease response was assessed in all patients who received at least one dose of pevonedistat, had measurable disease (per entry criteria for part B), and had at least one post-baseline disease assessment. Response assessment was done by the investigator using Response Evaluation Criteria in Solid Tumors (RECIST) version 1.1. SAS version 9.4 was used for all statistical analyses."}, "[3]": {"tested_on": "CYP3A", "design": "method as in PMID 30845347", "conditions": "in vitro; cited from earlier work"}, "[4]": {"conditions": "human, whole blood, single 1-hr IV infusion 25 mg/m^2, geometric mean (CV), N = 7"}}, "note": "Entries after “also recorded” stand apart in the source; their conditions may differ. Read-outs that look alike come from different tables or passages of the source. Marks after values point to notes of the source that are not given here.", "data": [{"smiles": "NS(=O)(=O)OC[C@@H]1C[C@@H](n2ccc3c(N[C@H]4CCc5ccccc54)ncnc32)C[C@@H]1O", "note": "[Pevonedistat]", "values": [{"measurement": "clearance classification", "setting": "[1]; based on whole blood CL vs hepatic blood flow", "value": "low clearance drug"}, {"measurement": "blood plasma ratio", "setting": "[1]; human, mean (SD), N = 7, read-out: Whole blood/plasma AUClast ratio", "value": 42.2}, {"measurement": "blood plasma ratio", "setting": "[1]; human, mean (SD), N = 7, read-out: Whole blood/plasma AUC∞ ratio", "value": 40.8}, {"measurement": "blood plasma ratio", "setting": "[1]; human, mean (SD), N = 7, read-out: Whole blood/plasma Cmax ratio", "value": 31.9}, {"measurement": "AUC(0-inf)", "setting": "[1]; [4]", "value": 58600, "unit": "ng·h/mL"}, {"measurement": "AUC(0-t)", "setting": "[1]; [4]", "value": 58500, "unit": "ng·h/mL"}, {"measurement": "Cmax", "setting": "[1]; [4]", "value": 6720, "unit": "ng/mL"}, {"measurement": "clearance", "setting": "[1]; [4]", "value": 13.5, "unit": "mL/min"}, {"measurement": "Vd", "setting": "[1]; human, whole blood, single 1-hr IV infusion 25 mg/m^2, geometric mean (CV), N = 7, read-out: Vss", "value": 9.1, "unit": "L"}, {"measurement": "half-life", "setting": "[1]; human, whole blood, single 1-hr IV infusion 25 mg/m^2, mean (SD), N = 7", "value": 13.9, "unit": "h"}, {"measurement": "whole blood CL as share of hepatic blood flow", "setting": "[1]; single dose 25 mg/m^2", "value": "approximately 1%"}, {"measurement": "Exposure ratio (AUC∞) of pevonedistat vs. total drug-related material", "setting": "[1]; whole blood, single 1-h IV infusion 25 mg/m^2, mean", "value": 0.44}, {"measurement": "Back pain, Any grade", "setting": "[2]; human, in vivo", "value": "1 (12.5) n (%)"}, {"measurement": "Back pain, Grade ≥ 3", "setting": "[2]; human, in vivo", "value": "0 n (%)"}, {"measurement": "Constipation, Any grade", "setting": "[2]; human, in vivo", "value": "1 (12.5) n (%)"}, {"measurement": "Constipation, Grade ≥ 3", "setting": "[2]; human, in vivo", "value": "0 n (%)"}, {"measurement": "Dizziness, Any grade", "setting": "[2]; human, in vivo", "value": "1 (12.5) n (%)"}, {"measurement": "Dizziness, Grade ≥ 3", "setting": "[2]; human, in vivo", "value": "0 n (%)"}, {"measurement": "Sarcoma, Any grade", "setting": "[2]; human, in vivo", "value": "1 (12.5) n (%)"}, {"measurement": "Sarcoma, Grade ≥ 3", "setting": "[2]; human, in vivo", "value": "1 (12.5)^a n (%)"}, {"measurement": "Serious TEAEs, patients", "setting": "[2]; human, in vivo", "value": "1 (12.5) n (%)"}, {"measurement": "Serious TEAEs: Drug-related, patients", "setting": "[2]; human, in vivo", "value": "0 (0.0) n (%)"}, {"measurement": "Serious TEAEs: Resulting in study discontinuation, patients", "setting": "[2]; human, in vivo", "value": "0 (0.0) n (%)"}, {"measurement": "TEAEs: Grade ≥ 3, patients", "setting": "[2]; human, in vivo", "value": "1 (12.5) n (%)"}, {"measurement": "TEAEs: Grade ≥ 3 drug-related, patients", "setting": "[2]; human, in vivo", "value": "0 (0.0) n (%)"}, {"measurement": "Urinary retention, Any grade", "setting": "[2]; human, in vivo", "value": "1 (12.5) n (%)"}, {"measurement": "Urinary retention, Grade ≥ 3", "setting": "[2]; human, in vivo", "value": "0 n (%)"}, {"measurement": "Vomiting, Any grade", "setting": "[2]; human, in vivo", "value": "1 (12.5) n (%)"}, {"measurement": "Vomiting, Grade ≥ 3", "setting": "[2]; human, in vivo", "value": "0 n (%)"}, {"measurement": "Serious TEAEs, patients", "setting": "[2]; in vivo", "value": "no serious TEAEs"}, {"measurement": "On-study deaths, patients", "setting": "[2]", "value": "One"}, {"measurement": "On-study deaths, patients", "setting": "[2]; listed as [^14C]-pevonedistat", "value": "1 (12.5)^a n (%)"}, {"measurement": "role of CYP3A in metabolism", "setting": "[3]", "value": "substrate of CYP3A; also recorded: major role for CYP3A"}]}]}
